Active and inactive are the calls of the source.
Columns and labels:
[1] = THP-1 cell cytotoxicity, dose response, cytotoxicity control, set 3 (AID 504852); format: functional; settings: Mycobacterium tuberculosis
[2] = cells; format: functional
[3] = target: Beta-lactamase (Pseudomonas aeruginosa, UniProt Q79MP6);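 note: biochemical dose-response test of metallo-beta-lactamase enzyme inhibition, read out by epi-absorbance; purified recombinant IMP-1 metallo-beta-lactamase with nitrocefin as substrate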
Beta-lactamase (Pseudomonas aeruginosa, UniProt Q79MP6), sequence (Q79MP6 whole entry): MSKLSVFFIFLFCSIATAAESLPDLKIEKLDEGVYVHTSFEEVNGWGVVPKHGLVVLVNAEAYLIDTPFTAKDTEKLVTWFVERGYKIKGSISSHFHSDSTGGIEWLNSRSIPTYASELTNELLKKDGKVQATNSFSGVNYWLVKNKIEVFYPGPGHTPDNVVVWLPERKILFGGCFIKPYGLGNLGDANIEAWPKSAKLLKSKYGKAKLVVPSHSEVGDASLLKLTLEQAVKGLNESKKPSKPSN

[4] = target: T1, ORF 73 (Human herpesvirus 8, UniProt O40947); test: inhibitors of C-LANA binding to LBS DNA, dose response, biochemical, fluorescence polarization, cherry-picked samples (AID 504725); set-up: species or system Human gammaherpesvirus 8;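 note: fluorescence polarization of a labeled DNA duplex reporting LANA DNA binding; potency is for inhibitors that block LANA binding to the DNA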
T1 sequence (O40947 whole entry): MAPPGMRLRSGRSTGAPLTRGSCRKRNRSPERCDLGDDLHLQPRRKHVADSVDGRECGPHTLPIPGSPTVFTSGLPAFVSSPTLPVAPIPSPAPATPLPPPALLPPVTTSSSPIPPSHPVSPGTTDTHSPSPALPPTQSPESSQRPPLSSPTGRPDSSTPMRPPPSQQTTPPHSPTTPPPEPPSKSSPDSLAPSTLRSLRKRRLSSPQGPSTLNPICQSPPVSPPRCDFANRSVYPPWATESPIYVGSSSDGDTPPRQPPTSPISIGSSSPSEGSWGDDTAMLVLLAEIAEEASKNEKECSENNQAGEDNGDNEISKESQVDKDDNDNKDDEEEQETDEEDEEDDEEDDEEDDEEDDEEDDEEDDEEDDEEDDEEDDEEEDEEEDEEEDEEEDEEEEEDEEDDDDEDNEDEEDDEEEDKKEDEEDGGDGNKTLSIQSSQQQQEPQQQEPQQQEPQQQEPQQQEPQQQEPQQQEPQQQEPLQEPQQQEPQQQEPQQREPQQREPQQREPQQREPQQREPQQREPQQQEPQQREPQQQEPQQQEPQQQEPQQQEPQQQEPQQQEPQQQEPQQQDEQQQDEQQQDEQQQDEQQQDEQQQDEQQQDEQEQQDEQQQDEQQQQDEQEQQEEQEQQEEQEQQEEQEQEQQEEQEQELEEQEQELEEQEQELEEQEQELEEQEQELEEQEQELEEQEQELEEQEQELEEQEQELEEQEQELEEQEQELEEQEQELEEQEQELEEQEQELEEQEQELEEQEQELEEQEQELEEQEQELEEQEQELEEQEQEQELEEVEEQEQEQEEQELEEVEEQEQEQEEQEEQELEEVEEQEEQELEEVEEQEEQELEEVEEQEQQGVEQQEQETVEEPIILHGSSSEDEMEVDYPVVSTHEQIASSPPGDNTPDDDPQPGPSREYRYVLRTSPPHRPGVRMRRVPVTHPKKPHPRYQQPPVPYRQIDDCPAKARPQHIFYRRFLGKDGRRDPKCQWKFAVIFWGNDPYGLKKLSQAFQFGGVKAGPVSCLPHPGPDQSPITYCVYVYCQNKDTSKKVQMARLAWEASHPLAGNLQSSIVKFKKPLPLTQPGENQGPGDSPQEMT

[5] = target: T2, Zinc finger protein mex-5 (Caenorhabditis elegans, UniProt Q9XUB2); test: MEX-5/TCR-2 RNA interaction inhibitors, dose response, biochemical, C. elegans, fluorescence polarization (AID 1960)
T2 sequence (Q9XUB2 whole entry): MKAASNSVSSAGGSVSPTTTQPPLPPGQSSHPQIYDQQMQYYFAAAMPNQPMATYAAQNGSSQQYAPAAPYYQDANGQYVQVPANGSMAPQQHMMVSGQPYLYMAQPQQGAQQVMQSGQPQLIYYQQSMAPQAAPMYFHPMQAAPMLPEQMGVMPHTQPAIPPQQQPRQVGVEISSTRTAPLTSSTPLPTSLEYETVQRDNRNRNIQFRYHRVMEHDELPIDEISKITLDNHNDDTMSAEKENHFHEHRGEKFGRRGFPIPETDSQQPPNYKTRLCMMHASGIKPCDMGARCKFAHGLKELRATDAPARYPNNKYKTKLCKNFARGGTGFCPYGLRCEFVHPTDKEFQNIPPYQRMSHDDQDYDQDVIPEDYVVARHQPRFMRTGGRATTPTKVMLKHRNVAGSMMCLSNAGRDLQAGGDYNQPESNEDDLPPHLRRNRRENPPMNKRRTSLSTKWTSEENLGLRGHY

[6] = target: Keap1/Nrf2 (Homo sapiens, UniProt Q14145); test: Keap1-Nrf2 protein-protein interaction inhibitors, dose response, biochemical, fluorescence polarization, cherry-picked samples (AID 588683)
Keap1/Nrf2, sequence (Q16236 whole entry): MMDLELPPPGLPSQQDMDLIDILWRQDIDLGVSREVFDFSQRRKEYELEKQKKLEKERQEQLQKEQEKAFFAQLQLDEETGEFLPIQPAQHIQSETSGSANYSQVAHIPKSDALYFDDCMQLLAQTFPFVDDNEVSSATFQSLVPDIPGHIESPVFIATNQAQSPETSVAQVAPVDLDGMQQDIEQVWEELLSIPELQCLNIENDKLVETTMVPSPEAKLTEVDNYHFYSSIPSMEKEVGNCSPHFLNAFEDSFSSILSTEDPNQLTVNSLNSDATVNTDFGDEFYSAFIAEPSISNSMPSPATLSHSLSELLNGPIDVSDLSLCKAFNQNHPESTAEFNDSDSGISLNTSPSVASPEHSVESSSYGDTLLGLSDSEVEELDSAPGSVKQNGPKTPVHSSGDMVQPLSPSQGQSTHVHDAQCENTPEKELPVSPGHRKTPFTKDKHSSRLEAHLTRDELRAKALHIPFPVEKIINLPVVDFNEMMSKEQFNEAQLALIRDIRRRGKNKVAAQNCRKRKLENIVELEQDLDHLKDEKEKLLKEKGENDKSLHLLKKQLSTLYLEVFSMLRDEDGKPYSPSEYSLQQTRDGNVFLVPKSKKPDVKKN
Keap1/Nrf2, sequence (Q14145 whole entry): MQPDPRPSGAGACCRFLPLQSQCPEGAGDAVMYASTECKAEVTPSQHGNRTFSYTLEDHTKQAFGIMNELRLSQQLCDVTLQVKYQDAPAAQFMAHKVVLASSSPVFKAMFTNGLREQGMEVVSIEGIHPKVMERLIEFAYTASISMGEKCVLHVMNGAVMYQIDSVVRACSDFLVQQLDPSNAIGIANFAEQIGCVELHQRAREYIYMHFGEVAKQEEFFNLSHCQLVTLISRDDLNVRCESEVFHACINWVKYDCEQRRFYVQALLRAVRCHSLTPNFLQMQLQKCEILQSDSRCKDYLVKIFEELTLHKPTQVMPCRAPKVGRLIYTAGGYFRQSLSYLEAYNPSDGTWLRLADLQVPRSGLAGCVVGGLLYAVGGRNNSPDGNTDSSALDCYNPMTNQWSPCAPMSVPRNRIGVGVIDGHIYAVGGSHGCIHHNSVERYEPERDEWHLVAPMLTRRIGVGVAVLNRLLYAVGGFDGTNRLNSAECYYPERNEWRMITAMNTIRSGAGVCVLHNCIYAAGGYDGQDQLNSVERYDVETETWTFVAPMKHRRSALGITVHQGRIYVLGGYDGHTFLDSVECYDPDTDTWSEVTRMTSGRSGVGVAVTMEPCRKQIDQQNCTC

[7] = test system: HEK293; test: HEK cell cytotoxicity by LDH release, dose response, cytotoxicity control for IDE activator project, fluorescence, HEK cells (AID 588440); format: functional, cell-based; settings: Homo sapiens;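 note: cytotoxicity by LDH release measuring loss of membrane integrity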
[8] = target: T3, Insulin-degrading enzyme (Homo sapiens, UniProt P14735); test: activators of endogenous IDE in HEK cells, dose response, cell-based, fluorescence polarization (AID 588439); format: functional
T3 sequence (P14735 whole entry): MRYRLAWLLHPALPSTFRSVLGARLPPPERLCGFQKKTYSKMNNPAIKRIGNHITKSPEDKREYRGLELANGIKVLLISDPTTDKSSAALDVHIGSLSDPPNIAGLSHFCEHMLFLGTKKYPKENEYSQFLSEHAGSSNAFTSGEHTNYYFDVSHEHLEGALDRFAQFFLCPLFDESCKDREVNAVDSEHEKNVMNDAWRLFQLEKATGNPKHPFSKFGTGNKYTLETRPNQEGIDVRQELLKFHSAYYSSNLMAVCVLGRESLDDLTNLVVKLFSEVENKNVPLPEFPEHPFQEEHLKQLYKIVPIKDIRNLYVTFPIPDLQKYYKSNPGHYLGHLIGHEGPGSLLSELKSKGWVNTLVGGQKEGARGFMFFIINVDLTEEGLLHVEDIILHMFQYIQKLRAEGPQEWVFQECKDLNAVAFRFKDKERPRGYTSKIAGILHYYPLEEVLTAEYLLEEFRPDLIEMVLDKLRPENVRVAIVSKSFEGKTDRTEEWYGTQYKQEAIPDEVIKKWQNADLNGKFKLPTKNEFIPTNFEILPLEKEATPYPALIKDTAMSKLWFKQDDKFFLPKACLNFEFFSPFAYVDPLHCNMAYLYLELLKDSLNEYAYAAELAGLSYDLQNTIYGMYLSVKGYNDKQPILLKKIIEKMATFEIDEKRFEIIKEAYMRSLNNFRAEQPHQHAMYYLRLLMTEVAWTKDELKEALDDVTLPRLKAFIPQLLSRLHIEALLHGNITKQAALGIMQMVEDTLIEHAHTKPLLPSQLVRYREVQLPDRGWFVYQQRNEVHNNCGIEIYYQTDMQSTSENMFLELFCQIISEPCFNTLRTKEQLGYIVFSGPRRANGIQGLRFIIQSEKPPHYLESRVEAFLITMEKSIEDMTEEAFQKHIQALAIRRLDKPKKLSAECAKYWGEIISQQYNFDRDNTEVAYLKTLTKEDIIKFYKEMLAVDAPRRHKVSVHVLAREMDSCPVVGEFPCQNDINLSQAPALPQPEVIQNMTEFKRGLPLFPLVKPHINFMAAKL

[9] = target: T3, Insulin-degrading enzyme; test: activators of recombinant IDE enzyme, dose response, counter-screen for IDE activator project, biochemical, fluorescence polarization (AID 588681)
[10] = test system: HEK293; test: optical interference in Abeta FP readout, dose response, artefact control for IDE activator project, biochemical, fluorescence polarization (AID 588442); format: functional, cell-based; settings: Homo sapiens
[11] = target: Beta-lactamase (Salmonella choleraesuis (strain SC-B67), UniProt Q5J463)
Beta-lactamase (Salmonella choleraesuis (strain SC-B67), UniProt Q5J463), sequence (Q5J463 whole entry, the tested form may be a part): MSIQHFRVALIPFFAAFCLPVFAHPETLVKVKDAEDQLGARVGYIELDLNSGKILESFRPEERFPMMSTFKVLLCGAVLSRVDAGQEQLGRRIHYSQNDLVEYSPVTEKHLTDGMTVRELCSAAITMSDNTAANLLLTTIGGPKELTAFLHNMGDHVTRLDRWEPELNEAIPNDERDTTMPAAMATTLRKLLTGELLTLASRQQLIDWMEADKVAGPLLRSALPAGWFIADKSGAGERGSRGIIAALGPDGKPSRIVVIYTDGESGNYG

[12] = target: T4, RNA-binding protein pos-1 (Caenorhabditis elegans, UniProt G5EF15); test: inhibitors of POS-1/mex-3 RNA binding, dose response, biochemical, fluorescence polarization (AID 1964);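 note: purified POS-1 fused to maltose binding protein made in E. coli; potency of compounds blocking POS-1 binding to fluorescent RNA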
T4 sequence (G5EF15 whole entry): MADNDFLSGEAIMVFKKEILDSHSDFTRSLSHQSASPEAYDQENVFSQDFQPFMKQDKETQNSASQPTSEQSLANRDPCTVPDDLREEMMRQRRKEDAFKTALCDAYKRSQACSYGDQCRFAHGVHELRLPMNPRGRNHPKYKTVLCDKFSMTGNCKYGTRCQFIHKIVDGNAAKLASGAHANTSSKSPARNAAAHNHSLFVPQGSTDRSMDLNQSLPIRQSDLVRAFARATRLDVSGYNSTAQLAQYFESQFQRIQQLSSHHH

[13] = target: Sphingosine 1-phosphate receptor 2 (Homo sapiens, UniProt O95136); test: Late-stage fluorescence-based dose-response cell-based counterscreen assay to identify agonists of the Sphingosine 1-Phosphate Receptor 3 (S1P3): Sphingosine 1-Phosphate Receptor 2 (S1P2) agonist assay.; format: functional
Sphingosine 1-phosphate receptor 2, sequence (O95136 whole entry): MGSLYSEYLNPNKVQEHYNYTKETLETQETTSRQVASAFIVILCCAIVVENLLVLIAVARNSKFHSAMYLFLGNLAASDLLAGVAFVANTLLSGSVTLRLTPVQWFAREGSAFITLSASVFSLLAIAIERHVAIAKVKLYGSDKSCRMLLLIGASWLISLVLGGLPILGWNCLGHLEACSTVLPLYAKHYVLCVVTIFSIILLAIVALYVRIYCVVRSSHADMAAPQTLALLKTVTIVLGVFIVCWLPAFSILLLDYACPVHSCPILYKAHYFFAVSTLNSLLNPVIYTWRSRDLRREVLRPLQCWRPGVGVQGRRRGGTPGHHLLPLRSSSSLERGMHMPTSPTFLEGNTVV

[14] = target: Sphingosine 1-phosphate receptor 4 (Homo sapiens, UniProt O95977); test: Late-stage fluorescence-based dose-response cell-based counterscreen assay to identify agonists of the Sphingosine 1-Phosphate Receptor 3 (S1P3): Sphingosine 1-Phosphate Receptor 4 (S1P4) agonist assay.; format: functional
Sphingosine 1-phosphate receptor 4, sequence (O95977 whole entry): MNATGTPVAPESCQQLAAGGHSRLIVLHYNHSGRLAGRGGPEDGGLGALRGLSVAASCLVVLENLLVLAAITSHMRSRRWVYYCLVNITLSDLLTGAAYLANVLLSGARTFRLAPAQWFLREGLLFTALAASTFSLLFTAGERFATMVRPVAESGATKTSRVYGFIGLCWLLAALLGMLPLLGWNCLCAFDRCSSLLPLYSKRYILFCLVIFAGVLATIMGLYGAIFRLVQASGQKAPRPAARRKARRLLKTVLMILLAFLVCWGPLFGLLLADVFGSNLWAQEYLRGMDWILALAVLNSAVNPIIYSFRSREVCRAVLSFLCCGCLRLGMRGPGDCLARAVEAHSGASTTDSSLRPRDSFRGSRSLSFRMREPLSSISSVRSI

[15] = target: T5, Orexin receptor type 2 (Homo sapiens, UniProt O43614); test: Counterscreen assay for antagonists of the orexin 1 receptor (OX1R; HCRTR1): Homogeneous Time Resolved Fluorescence (HTRF)-based cell-based dose response assay for antagonists of the orexin 2 receptor (OX2R; HCRTR2), run by assay provider.; format: functional
T5 sequence (O43614 whole entry): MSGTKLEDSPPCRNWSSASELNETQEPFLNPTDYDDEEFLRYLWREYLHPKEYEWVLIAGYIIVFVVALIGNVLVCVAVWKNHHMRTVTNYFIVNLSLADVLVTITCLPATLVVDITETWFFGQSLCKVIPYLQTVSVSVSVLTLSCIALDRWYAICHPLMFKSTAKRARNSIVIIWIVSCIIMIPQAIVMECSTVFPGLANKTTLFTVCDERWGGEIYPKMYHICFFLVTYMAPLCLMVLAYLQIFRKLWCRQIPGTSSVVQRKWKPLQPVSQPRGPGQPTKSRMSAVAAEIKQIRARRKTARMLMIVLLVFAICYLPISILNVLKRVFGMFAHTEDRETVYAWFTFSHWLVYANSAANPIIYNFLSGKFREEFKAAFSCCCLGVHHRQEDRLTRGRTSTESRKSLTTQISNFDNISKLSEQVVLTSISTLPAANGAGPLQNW

[16] = target: T5, Orexin receptor type 2; test: Counterscreen assay for antagonists of the orexin 1 receptor (OX1R; HCRTR1): Fluorescence-based cell-based dose response assay for antagonists of the orexin 2 receptor (OX2R; HCRTR2), run by assay provider.; format: functional
[17] = target: T6, Orexin/Hypocretin receptor type 1 (Homo sapiens, UniProt O43613); test: Homogeneous Time Resolved Fluorescence (HTRF)-based cell-based high throughput dose response assay for antagonists of the orexin 1 receptor (OX1R; HCRTR1). [Related pubchem assays (depositor defined):AID434989, AID435008, AID463079, AID485270, AID492963, AID492964, AID492965, AID493232, AID504717, AID504718]; format: functional
T6 sequence (O43613 whole entry): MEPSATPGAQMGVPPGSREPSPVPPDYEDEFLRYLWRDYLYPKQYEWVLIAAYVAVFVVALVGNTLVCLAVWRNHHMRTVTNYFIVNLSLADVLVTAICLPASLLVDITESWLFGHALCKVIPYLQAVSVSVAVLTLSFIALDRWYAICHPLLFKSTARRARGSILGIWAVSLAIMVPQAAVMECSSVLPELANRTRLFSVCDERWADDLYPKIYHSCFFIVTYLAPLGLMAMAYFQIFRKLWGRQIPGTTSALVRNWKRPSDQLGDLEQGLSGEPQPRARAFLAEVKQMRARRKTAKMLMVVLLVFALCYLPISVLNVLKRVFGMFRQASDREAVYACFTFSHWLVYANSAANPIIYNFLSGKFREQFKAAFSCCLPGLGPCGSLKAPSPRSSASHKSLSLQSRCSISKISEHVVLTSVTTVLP

[18] = target: T6, Orexin/Hypocretin receptor type 1; test: Fluorescence-based cell-based high throughput dose response assay for antagonists of the orexin 1 receptor (OX1R; HCRTR1). [Related pubchem assays (depositor defined):AID434989, AID435008, AID463079, AID485270, AID492963, AID492964, AID492965, AID493232, AID504717, AID504718]; format: functional
[19] = (§1) Counterscreen for antagonists of the orexin 1 receptor (OX1R; HCRTR1): Fluorescence-based cell-based high throughput dose response assay to identify antagonists of the parental CHO cell line. [Related pubchem assays (depositor defined):AID434989, AID435008, AID463079, AID485270, AID492963, AID492964, AID492965, AID493232, AID504699, AID504701]; format: functional
[20] = test system: CHO-K1; test: as §1, with “Homogeneous time resolved fluorescence (HTRF)-based” for “Fluorescence-based”, “cell-based” for “cell-based high throughput”, “CHO-K1” for “CHO”; format: functional; settings: Cricetulus griseus;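 note: potency for inhibition of ATP-stimulated IP1 production as antagonists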

In the case of `Cc1ccc(NC(=O)COC(=O)CCc2c[nH]c3ccccc23)cc1[N+](=O)[O-]`, the CC50 [1] is reported as > 100 µM (active) and the IC50 [2] is reported as 1.84 µM (active).
In the case of `O=C1c2cccc3c(O)ccc(c23)C(=O)N1c1ccc(Cl)cc1`, the IC50 [3] is reported as 19.8 µM (inactive), the AC50 [4] is reported as 1.93 µM (active) and the EC50 [5] is reported as 0.289 µM (inconclusive). For the same compound, the AC50 [6] was 2.53 µM (active), the IC50 [7] was > 89.2 µM (inactive) and the EC50 [8] was > 54.7 µM (inactive). The EC50 [9] was > 54.7 µM (inactive), the EC50 [10] was > 54.7 µM (inactive) and the IC50 [11] was 7.95 µM (active). For the same compound, the EC50 [12] was 7.11 µM (inconclusive).
With `CC1CCCCC1N(C(=O)c1cc(C2CC2)on1)C1CCCC1` (stereo not given) the EC50 [13] was > 50 µM (inactive) and the EC50 [14] was > 50 µM (inactive).
For `Cc1ccc(C)n1-c1nn(S(=O)(=O)c2cccc3cccnc23)c2cccc(F)c12`, the IC50 [15] was > 50 µM (inactive), the IC50 [16] was 29.3 µM (inactive) and the IC50 [17] was 1.93 µM (active). The IC50 [18] was 45 µM (inactive), the IC50 [19] was > 49.8 µM (inactive) and the IC50 [20] was > 66.2 µM (inactive).
